Experimental findings from patent US10900091B2, “miR-133a as a marker for colorectal cancer” (The Chinese University of Hong Kong, priority 2019, dated 2021) are described below.

Entries after “also recorded” stand apart in the source; their conditions may differ.

The test system of data set [1] is CRC cell lines (HT29, SW1116, HCT116, HCT116p53−/−, RKO, DLD1). Briefly: MTT cell viability assay: oxaliplatin sensitization after ectopic miR-133a expression. The format is cell-based, human. Particulars: CRC cell lines with ectopic expression of miR-133a; oxaliplatin treatment; FIG. 4. As for the experimental part:
(§1) Human miR-133a precursor (PM10413) was purchased from Thermo Fisher Scientific. […] Cells were transfected with miRNAs using Lipofectamine 2000 (Invitrogene). Cells transfected with miRNA were harvested 12 h to 48 h post-transfection.
After 24 h of transfection, cells were collected and seeded (500-1000/well) in a fresh 96-well plate for 5 days. Cell viability was determined using the conversion of 3-(4,5-dimethylthiazol-2-yl)-2,5-diphenyltetrazolium bromide (MTT) to formazan via mitochondrial oxidation. MTT solution was then added to each well at a final concentration of 0.2 mg/ml per well and the plates were incubated at 37° C. for another 1 h. After incubation, 200 μl of dimethyl sulfoxide was added to each well to dissolve the formazan formed and the absorbance was measured at 570 nm using a spectrophotometer. All the experiments were repeated in three independent experiments in triplicate.
To validate the role of miR-133a in oxaliplatin sensitization in vitro, miR-133a was expressed in the microsatellite stable (HT29, SW1116) and microsatellite instable CRC cell lines (HCT116, HCT116^p53−/−, RKO, DLD1), respectively. 50% inhibitory concentration (IC50) of each cell lines was calculated by means of MTT assay. Restoration of miR-133a was sufficient to result in a 1.5 to 2.9 fold sensitization to oxaliplatin treatment in all the tested cell lines (FIG. 4).

The test system of a further data set is ATP7B. Put plainly: Endogenous ATP7B expression after miR-133a transfection (qPCR, western blot). Format: cell-based, human. As for the experimental part:
as §1
(§2) Protein concentration was measured by the Bradford DC protein assay (Bio-Rad, Hercules, Calif.). 5-20 μg of protein from each sample were separated on 10% Bis-Tris-polyacrylamide gel through electrophoresis and blotted onto nitrocellulose membranes (GE Healthcare, Piscataway, N.J.). Blots were immunostained with primary antibodies at 4° C. overnight and secondary antibody at room temperature for 1 h. Protein was visualized using ECL Plus Western Blotting Detection Reagents (GE Healthcare). Independent experiments were performed at least twice.
(§3) To characterize the chemosensitizing property of miR-133a to oxaliplatin treatment, miR-133a targets that regulated the metabolism of oxaliplatin were searched for. Increased drug efflux and activation of detoxification system are two major aspects that induce Platinum-based drugs resistance (15). Previous studies indicate that ATPase Cu++ transporting beta polypeptide (ATP7B), ATP-binding cassette sub-family C member 1 (ABCC1) and γ-glutamylcysteine liganse (GCLC) regulated Platinum-based drugs efflux and detoxification (16-21). […]

Another data set has as its system human ATP7B 3′-UTR. Put plainly: Dual-luciferase reporter assay, ATP7B 3′UTR. The format is cell-based. As for the experimental part:
(§4) Wild-type or mutanted human ATP7B, ABCC1 and GCLC 3′-UTR were cloned into pMIR-REPORT vector (Thermo Fisher Scientific) at the SacI and SpeI sites, respectively. Co-transfection of reporter plasmids and miRNA in 24-well plates were carried out with lipofectamine 2000 as described by the manufacture. Per well, 195 ng luciferase report plasmid, 5 ng pRL-cytomegalovirus (CMV) vector and 15 pmole miRNA were applied. Cells were harvested 48 h post-transfection and luciferase activities were analyzed by the dual-luciferase reporter assay system (Promega, Madison, Wis.).
(§5) To characterize the chemosensitizing property of miR-133a to oxaliplatin treatment, miR-133a targets that regulated the metabolism of oxaliplatin were searched for. Increased drug efflux and activation of detoxification system are two major aspects that induce Platinum-based drugs resistance (15). Previous studies indicate that ATPase Cu++ transporting beta polypeptide (ATP7B), ATP-binding cassette sub-family C member 1 (ABCC1) and γ-glutamylcysteine liganse (GCLC) regulated Platinum-based drugs efflux and detoxification (16-21). […] Furthermore, their predicted 3′UTR binding sites, as well as their mutant form, were attached to firefly luciferase reporter gene, respectively. miR-133a repressed wild-type ATP7B, ABCC1, and GCLC-3′UTR reporter activity for about 64%, 56% and 42%, respectively (FIG. 5A, P<0.05).

For another data set, the system named is human GCLC 3′-UTR. Briefly: Dual-luciferase reporter assay, GCLC 3′UTR. Format: cell-based. As for the experimental part:
as §4, §5

For a further data set, the system named is ABCC1. Briefly: Endogenous ABCC1 expression after miR-133a transfection (qPCR, western blot). Format: cell-based, human. As for the experimental part: as §1, §2, §3
The test system of a further data set is human ABCC1 3′-UTR. Briefly: Dual-luciferase reporter assay, ABCC1 3′UTR. The format is cell-based. As for the experimental part:
as §4, §5

The subject of a further data set is GCLC. Put plainly: Endogenous GCLC expression after miR-133a transfection (qPCR, western blot). Format: cell-based, human. As for the experimental part:
as §1, §2, §3

Another data set deals with stage IV CRC patients. Briefly: Response of stage IV CRC patients to oxaliplatin-based first-line treatment (RECIST). Format: in vivo, human. Particulars: 42 stage IV CRC patients, oxaliplatin-based first-line therapy. From the text:
A cohort of 42 pairs of tumor and adjacent normal tissue FFPE blocks obtained from stage IV CRC patients who had received oxaliplatin-based treatment as first-line therapy at Prince of Wales Hospital between 2003 and 2010, and with known clinico-oncologic outcomes were identified from the prospectively collected database. Patients were classified into responders and non-responders group according to RECIST guideline (7). Responders are defined as the patients achieving complete response (CR) and partial response (PR), and non-responder group as patients with stable disease (SD) and progressive disease (PD). Overall survival (OS) was calculated from the operation day to the date of death or the last visit with censoring. The progress free survival (PFS) during first-line chemotherapy was determined from the operation day to the first-line progression as documented by either CT scan, positron emission tomography/CT scan, or Carcinoembryonic antigen (CEA). Forty-six mCRC patients received oxaliplatin-based treatment as first-line therapy at Beijing Oncology Hospital were used as a validation cohort (BJ cohort). […]
miR-133a level was next evaluated in 42 pairs paraffin blocks of tumor and adjacent normal tissues from stage IV CRC patients who had received oxaliplatin-based treatment. […]

[2] abbreviates: qPCR, HCT116 and DLD1 (also HEK293).
Where [3] appears, read: western blot, HCT116, DLD1 and HEK293 (293T in the source).

“hsa-miR-133a-3p (UUUGGUCCCCUUCAACCAGCUG; precursor form, further chemistry not given here; listed as Homo sapiens) [Human miR-133a precursor purchased from Thermo Fisher Scientific, transfected into cells]”: the “IC50 compared with the control group” value in data set [1] is reported as “lower”. Moreover, the “ATP7B mRNA level” value with ATP7B (setting [2]) is reported as “significantly suppressed; also recorded: remarkably reduced; also recorded: decreased”. The ATP7B protein level entry with ATP7B (setting [3]) is “remarkably reduced; also recorded: decreased”. Moreover, the “effect on mutant ATP7B-3′UTR reporter activity” value in the data set on human ATP7B 3′-UTR (mutant 3′UTR) is listed as “no inhibition effect”. Also, the “repression of wild-type ATP7B-3′UTR reporter activity” value in the data set with human ATP7B 3′-UTR (wild-type 3′UTR, P<0.05) is reported as “about 64%”. In addition, the “effect on mutant GCLC-3′UTR reporter activity” value in the data set with human GCLC 3′-UTR (mutant 3′UTR) is listed as “no inhibition effect”. In addition, the “repression of wild-type GCLC-3′UTR reporter activity” value in the data set on human GCLC 3′-UTR (wild-type 3′UTR, P<0.05) was about 42%. Further, the “ABCC1 mRNA level” value in the data set with ABCC1 (setting [2]) was “significantly suppressed; also recorded: remarkably reduced; also recorded: decreased”. For the same compound, the ABCC1 protein level result in the data set with ABCC1 (setting [3]) is recorded as “remarkably reduced; also recorded: decreased”. Besides, the “effect on mutant ABCC1-3′UTR reporter activity” value in the data set with human ABCC1 3′-UTR (mutant 3′UTR) is “no inhibition effect”. Further, in the data set with human ABCC1 3′-UTR (wild-type 3′UTR, P<0.05), the “repression of wild-type ABCC1-3′UTR reporter activity” value was about 56%. Besides, the “GCLC mRNA level” value in the data set with GCLC (setting [2]) is on record as “significantly suppressed; also recorded: remarkably reduced; also recorded: decreased”. The GCLC protein level entry with GCLC (setting [3]) is “remarkably reduced; also recorded: decreased”.

Regarding `O=C1[O][Pt]2([NH][C@@H]3CCCC[C@H]3[NH]2)[O]C1=O` [oxaliplatin, Oxaliplatin], the objective response rate with stage IV CRC patients is recorded as 29%.
